Experiments:
[1] = Stability of lycopene incorporated into AIN-76A diet at ambient temperature in food cup (air and light); type: physicochemical; details: for Concentration: ambient temperature
Description: At various time points, a diet sample was taken and lycopene was extracted as follows: Approximately 0.5 to 1.0 g of sample was added to a 15 ml volume of extraction solvent consisting of 40% acetonitrile, 20% hexane, 20% methanol and 20% methylenechloride. The mixture was sonicated for 2 minutes and allowed to stand for 5 minutes. The reddish-orange clear supernatant was then decanted. This process was repeated 4 times, at which time the supernatant was colorless. Solvent was then added to a volume of 25 to 100 ml, the mixture centrifuged, and the supernatant decanted. All supernatants were then mixed. The above solvent serves two purposes; first, it is the most efficient mixture for lycopene, and second, it is the same solvent used for injecting lycopene samples into the HPLC.
The second was by exposing the lycopene-containing diet to air and light, as is the case in an actual feeding study. The stability of lycopene in the food cup where it is exposed to light and air is seen in Table 9.

retinol = assay: Liver vitamin A assay; type: in vivo, Fischer 344 rats; details: for Liver retinol: female
Excerpt: The effect of the tomato carotenoid supplement on the absorption and storage of two important fat soluble vitamins, namely, retinol and α-tocopherol, was investigated. Using established HPLC methods, a strong liner dose-response relationship was found between the lycopene content of the liver and both retinol and a-tocopherol concentration in female R-344 rats (Table 23).

[2] = Lycopene content of rat serum; type: in vivo, Fischer 344 rats
Description: Prior to termination, 3 animals from each group were placed in metabolic cages and 24-hour urine and fecal collections made for subsequent lycopene assay. Blood was collected by heart puncture under anesthesia for lycopene assay and all animals were sacrificed by CO2 anesthesia. Blood and feces were stored at −20° C. At necropsy, all major organ systems were grossly inspected. Any unusual appearing tissues were placed in formalin and saved for later histological examination.
Extraction of lycopene from serum was conducted by adding 1 ml of serum to 0.1 ml echinenone standard in ethanol and 0.9 ml ethanol. The mixture was then vortexed for 20 seconds, and 2.0 ml hexane added and mixed vigorously for 1 minute. The cloudy mixture was then centrifuged at 3,000 rpm for 15 minutes at 4° C. and the clear hexane layer was decanted. The above procedure was repeated 3-5×. The pooled hexane fraction was then dried under N2 gas at 60° C., and the residue dissolved in 0.5 ml HPLC solvent and analyzed by HPLC.

[3] = female, Group 1 (1280 mg/kg diet)
[4] = female, Group 2 (512 mg/kg diet)
[5] = female, Group 3 (256 mg/kg diet)
[6] = female, Group 5 (51 mg/kg diet)
[7] = male, Group 1 (1280 mg/kg diet)

CC(C)=CCC/C(C)=C/C=C/C(C)=C/C=C/C(C)=C/C=C/C=C(C)/C=C/C=C(C)/C=C/C=C(\C)CCC=C(C)C [Lycopene]
stability in the diet ([1]; 7 days at ambient light and temperature): stable
Concentration ([1]; AIN-76A diet, 0 days in food cup): 744 µg/g
Concentration ([1]; 2 days in food cup): 702 µg/g
Concentration ([1]; 3 days in food cup): 616 µg/g
Concentration ([1]; 6 days in food cup): 547 µg/g
Concentration ([1]; 7 days in food cup): 439 µg/g
Concentration ([1]; 9 days in food cup): 624 µg/g
Concentration ([1]; 10 days in food cup): 576 µg/g
Concentration ([1]; 13 days in food cup): 449 µg/g
Concentration ([1]; 14 days in food cup): 419 µg/g
Concentration ([1]; 15 days in food cup): 425 µg/g
Concentration ([1]; 17 days in food cup): 431 µg/g
Concentration ([1]; 20 days in food cup): 385 µg/g
Concentration ([1]; 21 days in food cup): 376 µg/g
original lycopene no longer measurable ([1]; food cup, air and light, 3 weeks): one-half
lycopene lost ([1]; food cup, air and light, 48-hour period): a small amount is lost
total lycopene lost ([1]; food cup, air and light, 72 hours): approximately 20%
difference in liver retinol between controls and the highest lycopene dose (retinol; female rats): 10 fold
Liver retinol (retinol; Group 1, lycopene 1280 mg/kg diet): 1302 μg/gm
Liver retinol (retinol; Group 2, lycopene 512 mg/kg diet): 768 μg/gm
Liver retinol (retinol; Group 3, lycopene 256 mg/kg diet): 858 μg/gm
Liver retinol (retinol; Group 4, lycopene 128 mg/kg diet): 888 μg/gm
Liver retinol (retinol; Group 5, lycopene 51 mg/kg diet): 555 μg/gm
concentration at 10 weeks ([2]; both sexes, Fischer 344, rat, serum, oral, all supplemented groups, males and females, read-out: Serum lycopene levels, overall low to high): 80 to 370 ng/mL
Lycopene content of serum, Median [2, 3]: 205 ng/mL
Lycopene content of serum, Range [2, 3]: 123 to 232 ng/mL
Lycopene content of serum, mean ± SD [2, 3]: 187 ± 043 ng/mL
Lycopene content of serum, Median [2, 4]: 180 ng/mL
Lycopene content of serum, Range [2, 4]: 109 to 211 ng/mL
Lycopene content of serum, mean ± SD [2, 4]: 169 ± 042 ng/mL
Lycopene content of serum, Median [2, 5]: 210 ng/mL
Lycopene content of serum, Range [2, 5]: 174 to 366 ng/mL
Lycopene content of serum, mean ± SD [2, 5]: 245 ± 083 ng/mL
Lycopene content of serum, Median [2, 6]: 152 ng/mL
Lycopene content of serum, Range [2, 6]: 081 to 207 ng/mL
Lycopene content of serum, mean ± SD [2, 6]: 145 ± 053 ng/mL
Lycopene content of serum, Median [2, 7]: 160 ng/mL
Lycopene content of serum, Range [2, 7]: 134 to 230 ng/mL
Lycopene content of serum, mean ± SD [2, 7]: 168 ± 036 ng/mL
Lycopene content of serum, Median ([2]; male, Group 2 (512 mg/kg diet)): 225 ng/mL
Lycopene content of serum, Range ([2]; male, Group 2 (512 mg/kg diet)): 148 to 326 ng/mL
Lycopene content of serum, mean ± SD ([2]; male, Group 2 (512 mg/kg diet)): 227 ± 068 ng/mL
Lycopene content of serum, Median ([2]; male, Group 3 (256 mg/kg diet)): 285 ng/mL
Lycopene content of serum, Range ([2]; male, Group 3 (256 mg/kg diet)): 174 to 372 ng/mL
Lycopene content of serum, mean ± SD ([2]; male, Group 3 (256 mg/kg diet)): 278 ± 066 ng/mL
Lycopene content of serum, Median ([2]; male, Group 4 (128 mg/kg diet)): 215 ng/mL
Lycopene content of serum, Range ([2]; male, Group 4 (128 mg/kg diet)): 153 to 328 ng/mL
Lycopene content of serum, mean ± SD ([2]; male, Group 4 (128 mg/kg diet)): 231 ± 064 ng/mL
Lycopene content of serum, Median ([2]; male, Group 5 (51 mg/kg diet)): 177 ng/mL
Lycopene content of serum, Range ([2]; male, Group 5 (51 mg/kg diet)): 100 to 238 ng/mL
Lycopene content of serum, mean ± SD ([2]; male, Group 5 (51 mg/kg diet)): 171 ± 049 ng/mL

Source: patent publication US20040191297A1, “Carotenoid formulation” (priority 1997, published 2004)
